According to patent publication US20210115000A1, “NILE RED DERIVATIVES FOR IMPROVED RATIOMETRIC IMAGING FOR NERVE SPECIFIC CONTRAST” (Oregon Health & Sciences University, priority 2018, published 2021):
“Also recorded” adds a separate entry of the source.

How the values were obtained:
[1] = Spectroscopic analysis: absorbance, emission and quantum yield of Nile Red derivatives; assay type: physicochemical
Procedure: Tandem liquid chromatography mass spectroscopy (LCMS) analysis (Agilent 1260 LC system with a 6224 time of flight (TOF) MS, Agilent, Santa Clara, Calif.) was performed using a 2.7 micron C18 column (4.6×50 mm, Agilent). High performance liquid chromatography (HPLC) purification (Agilent 1260 system with a preparative pump) was performed using a 5 micron C18 column (21.2×150 mm, Agilent). For both HPLC and LCMS, the mobile phase consisted of HPLC grade acetonitrile and water, treated with 0.1% formic acid. Spectroscopic analysis was performed on a Spectramax M5 spectrometer (Molecular Devices, Sunnyvale, Calif.) using a quartz cuvette with a 1 cm pathlength. Quantum yield was calculated according to equation (1).
Where Ø is the quantum yield, F is the integrated fluorescence intensity, f is the absorbance at the excitation wavelength and n is the refractive index of the solvent. S refers to the quantum yield standard (Rhodamine B)^25 and X refers to the unknown sample.

[2] = system: nerve, adipose and muscle tissue at nerve sites; experiment: In vivo co-staining with Oxazine 4, ratiometric imaging and ROC curve analysis; set-up: species or system male CD-1 mice; conditions: for ROC AUC of nerve-to-muscle contrast, change: 30 min after staining compared to immediately following staining
From the text: In vivo images were acquired using a previously published, custom-built small animal fluorescence imaging system, described briefly here.^27 Fluorescent images were obtained using a Qimaging EXi Blue monochrome camera (Surrey, British Columbia, CA) with a removable Bayer mask for collection of co-registered color and fluorescence images. A Photofluor II broad band light source (89 North) was expanded onto the surgical field through a liquid light guide and used unfiltered for white light illumination. Nile Red and NR5 were excitated using a 545 t 12.5 nm bandpass filter, while fluorescence emission images were collected with a 605±35 nm bandpass filter. Oxazine 4 (Exciton, West Chester, Ohio) was used for nerve and adipose co-staining and ratiometic imaging studies. Oxazine 4 was excited using a 620±30 nm bandpass filter, while fluorescence emission images were collected through a 700±37.5 nm bandpass filter. Approval for the use of animals in the study was obtained from the Institutional Animal Care and Use Committee (IACUC) at Oregon Health and Science University (OHSU). In vivo staining studies were carried out on male CD-1 mice using an optimized direct/topical administration protocol.^2 Staining was performed concurrently on no more than two nerve sites (sciatic nerve or brachial plexus) per mouse. Nile Red and all Nile Red derivatives were formulated in a previously published co-solvent formulation (10% DMSO, 5% Kolliphor, 63.75% serum and 21.25% PBS^14) at a final concentration of 100 μM. Each formulated fluorophore was incubated for 5 minutes on the nerve site (n=4 nerve sites/fluorophore), followed by 9 short flushes with PBS. The nerve site was then incubated with blank co-solvent not containing fluorophore for 5 minutes, followed again by 9 short flushes with PBS. In vivo co-staining was completed with (1) Nile Red and Oxazine 4 as well as (2) NR5 and Oxazine 4. For these studies, co-solvent formulated Oxazine 4 ([…]) was incubated on the nerve site for 5 minutes followed by 9 short flushes with PBS. The co-solvent formulated Nile Red or NR5 (100 μM) was then incubated on the nerve site for 5 minutes and also followed by 9 short flushes with PBS. Co-registered (1) Nile Red and Oxazine 4 or (2) NR5 and Oxazine 4 images were collected from n=4 nerve sites per groups (1) and (2). Ratiometric images were calculated and quantified using region of interest analysis on the white light images to identify the nerve, adipose and muscle tissue types. Due to the known cross talk of Oxazine 4 into the Nile Red channel,^2 the Oxazine 4 image was subtracted from the Nile Red or NR5 image resulting in an image of only adipose. The ratiometric images were then calculated as the Oxazine 4 image minus the corrected Nile Red or NR5 image divided by the corrected Nile Red or NR5 image. Receiver Operator Characteristic (ROC) curve analysis was performed to assess differences between the ratiometric images, where the area under the curve (AUC) was used as the metric to differentiate between groups (1) and (2) using custom written MatLab code.^28

[3] = system: CD-1 mouse sciatic nerve and surrounding muscle and adipose tissues; experiment: Ex vivo tissue section staining, imaging and fluorescence quantification; conditions: for tissue fluorescence intensity, region of interest analysis / tissue staining specificity on mouse tissue sections: 100 μM, 40 min; for tissue fluorescence intensity, region of interest analysis: n=4 tissue sections; for tissue staining specificity on mouse tissue sections: sections with nerve, muscle, adipose; for adipose to muscle ratio: ex vivo tissue sections, vs control autofluorescence
Procedure: Cryosections of CD-1 mouse sciatic nerve and surrounding muscle and adipose tissues from unrelated experiments were cut from optimal cutting temperature (OCT, Fisher Scientific, Hampton, N.H.) embedded frozen tissues. Cryosectioned tissues were captured on superfrost plus slides (Fisher Scientific) at 10 μm thickness. The tissue sections were washed with 1×PBS for 2 minutes to remove OCT, and then fixed with 2% PFA for 15 mins. The tissue sections were then washed with 0.1% Tween 20 in 1×PBS (3×5 mins), followed by incubation with 100 μM of Nile Red and each Nile Red derivative formulated using 10% DMSO, 5% Kolliphore (Sigma Aldrich, St. Louis, Mo.), 63.75% FBS, and 21.25% 1× PBS as previously described.^26 Tissue sections were incubated with the formulated fluorophores for 40 minutes at room temperature, followed by washing with blank formulation not containing fluorophore (2×5 mins). Each tissue section was then washed with 1×PBS (2×5 mins), fixed for 15 minutes using 2% PFA, followed by a final wash with 1×PBS for 5 mins before mounting in glycerol (Fisher Scientific). Images were collected at an exposure time of 650 ms for all Nile Red and Nile Red derivative stained sections. Four tissue sections were stained for Nile Red and each Nile Red derivative, facilitating adipose to muscle and adipose to nerve contrast ratio quantification where tissue intensities were quantified using region of interest analysis with custom written MatLab code (The MathWorks, Natick, Mass.). For each tissue type, a representative area was selected, where a threshold based mask was set to determine tissue from background. The mean tissue intensity was calculated in adipose, nerve and muscle tissues as the intensity per second and used to calculate the adipose to nerve and adipose to muscle contrast ratios. All ex vivo and cellular fluorescence and white light images were collected using a Zeiss AxioObserver inverted fluorescence microscope (Carl Zeiss, Oberkochen, Germany). All cell images were collected at 40× magnification and all tissue section images were collected at 10× magnification. Fluorescence excitation was completed using a Photofluor II broad band light source (89 North, Burlington, Vt.) filtered with a 545±12.5 nm bandpass excitation filter. Fluorescence images were collected using a 605±35 nm bandpass emission filter and a AxioCam 506 monochromo camera (Zeiss). All Filters were Purchased from Chroma Technologies (Bellows Falls, Vt.).

CCN(CC)c1ccc2nc3c4ccccc4c(=O)cc-3oc2c1 [Nile Red]
Max Abs ([1]; in DMSO): 550 nm
Max Em ([1]; in DMSO): 630 nm
absorbance maximum ([1]; in toluene): 520 nm
emission maximum ([1]; in toluene): 570 nm
ROC AUC of nerve-to-muscle contrast, change [2]: substantial drop in AUC value
tissue fluorescence intensity, region of interest analysis [3]: strong nerve and adipose fluorescence staining; also recorded: highest overall tissue fluorescence
tissue staining specificity on mouse tissue sections [3]: adipose specificity
adipose to muscle ratio [3]: increased contrast over control autofluorescence adipose to muscle ratio; also recorded: highest contrast ratios

CCN(CC)c1ccc2nc3c4ccc(-c5ccc(C#N)cc5)cc4c(=O)cc-3oc2c1 [NR5, 4-(9-(diethylamino)-5-oxo-5H-benzo[a]phenoxazin-3-yl)benzonitrile]
Max Abs ([1]; in DMSO): 560 nm
Max Em ([1]; in DMSO): 640 nm
Stokes Shift ([1]; in DMSO): 80 nm
QY (quantum yield) ([1]; in DMSO, standard Rhodamine B): 0.54
ROC AUC of nerve-to-muscle contrast, change [2]: little change
z-score, nerve-to-muscle contrast ([2]; NR5 and oxazine 4 costaining versus oxazine 4 alone, 30 min after staining): -21.32
z-score, nerve-to-muscle contrast ([2]; NR5 costaining with oxazine 4 compared to Nile Red costaining with oxazine 4, 30 min after staining): 99.96
z-score, nerve-to-adipose contrast ([2]; NR versus NR5 costaining with oxazine 4, 30 min after staining): 98.20
z-score, nerve-to-adipose contrast ([2]; NR versus NR5 costaining with oxazine 4, first time point (immediately after staining implied)): 25.26
z-score, nerve-to-muscle contrast ([2]; NR versus NR5 costaining with oxazine 4, immediately following staining): 21.87
ROC AUC nerve contrast ([2]; costaining with Oxazine 4, 30 minutes post direct administration): improved nerve to adipose and nerve to muscle contrast ratios; also recorded: significantly higher nerve-to-adipose contrast
ROC AUC nerve contrast ([2]; costaining with Oxazine 4, immediately following direct administration): slightly improved values
z-score, nerve-to-adipose contrast ([2]; oxazine 4 only staining versus NR5 costaining with oxazine 4, 30 min after staining): 16.12
z-score, nerve-to-adipose contrast ([2]; oxazine 4 only staining versus NR5 costaining with oxazine 4, first time point (immediately after staining implied)): 28.63
z-score, nerve-to-muscle contrast ([2]; oxazine 4 only staining versus NR5 costaining with oxazine 4, immediately following staining): 15.22
tissue fluorescence intensity, region of interest analysis [3]: strong nerve and adipose fluorescence staining; also recorded: substantially higher adipose, nerve and muscle tissue fluorescence
tissue staining specificity on mouse tissue sections [3]: adipose specificity; also recorded: brightest overall tissue staining compared to the other Nile Red derivatives
adipose to muscle ratio [3]: increased contrast over control autofluorescence adipose to muscle ratio; also recorded: highest contrast ratios
